Where “and” joins values, the source holds several entries; their conditions need not be identical. Identical values can stand only once.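 Tested at 5 concentrations; 48 h exposure; 96-well plates; endpoints linearly interpolated, else capped at highest concentration. Abbreviation: GI50, concentration required for 50% inhibition of growth. TGI is the concentration that stops growth completely.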

The values below come from PubChem BioAssay (NCI).

Test systems include XF 498 CNS; HOP-18 NSCLC; M19-MEL melanoma; LXFL 529 NSCLC; MDA-MB-231 breast; DU-145 prostate; BT-549 breast; T-47D breast; NCI/ADR-RES ovarian; HS 578T breast.
Common to all, as to test: NCI anticancer screen, dose series, 48 h

`O=C(O)c1[nH]c(C(=O)O)c(CC(F)(F)C(F)(F)C(F)(F)F)c1CC(F)(F)C(F)(F)C(F)(F)F`: the TGI with XF 498 CNS, with HOP-18 NSCLC, in the test with M19-MEL melanoma and with LXFL 529 NSCLC was over 100 µM each time.
For the compound `CC(=O)O/C(C)=C\C(=O)O/N=C(\N)c1ccc(C)cc1`, the values for the TGI with XF 498 CNS, with HOP-18 NSCLC and in the test with LXFL 529 NSCLC were over 100 µM, 98.6 µM and 59.9 µM, respectively.
Take `COC(=O)C12C3C4C1C1C2C3C41I` (stereo not drawn): the TGI in the test on XF 498 CNS, with HOP-18 NSCLC, in the test on M19-MEL melanoma and with LXFL 529 NSCLC was over 100 µM in each case.
With `CCCc1ccc(N=Cc2cc(OC)c(OC)c(OC)c2)cc1`, the TGI in the test on XF 498 CNS, in the test on HOP-18 NSCLC, in the test with M19-MEL melanoma and in the test with LXFL 529 NSCLC was over 100 µM each time.
`CCCCCCCCCCCC(=O)C1=C(O)C(O)CCC1=O` (stereo not drawn): the TGI in the test with XF 498 CNS turned out to be 26.4 µM; in the test with HOP-18 NSCLC, 86.5 µM; in the test on M19-MEL melanoma, 44.6 µM; in the test on LXFL 529 NSCLC, 53.9 µM.
On to `c1ccc2c(NCCCCCCCCNc3c4ccccc4nc4ccccc34)c3ccccc3nc2c1`, for which the TGI worked out at 2.25 µM in the test on XF 498 CNS; 5.19 µM in the test on HOP-18 NSCLC; 2.27 µM with M19-MEL melanoma; 1.81 µM in the test on LXFL 529 NSCLC; 1.74 µM in the test with MDA-MB-231 breast; 1.94 µM in the test with DU-145 prostate. Besides, the values for the TGI in the test with BT-549 breast, in the test with T-47D breast and with NCI/ADR-RES ovarian were 2.76 µM, 3.2 µM and 41.9 µM, respectively.
On to `Cc1c2ncccc2c(C)c2c1[nH]c1ccccc12`, for which the TGI with XF 498 CNS stood at 25.3 µM; with HOP-18 NSCLC it was 27.3 µM; with M19-MEL melanoma it was 26.1 µM; in the test with LXFL 529 NSCLC, 24.8 µM.
In the case of `CN(C)CCNC(=O)c1cc([N+](=O)[O-])cc2ccc(-c3ccccc3)nc12`, the TGI in the test with XF 498 CNS was determined as 21.7 µM; in the test with HOP-18 NSCLC it was 26.3 µM; in the test on M19-MEL melanoma it was 20 µM; in the test on LXFL 529 NSCLC, 58 µM; in the test on NCI/ADR-RES ovarian it was 9.97 µM.
With `CCc1cccc(C)c1NC(=O)CC1Sc2ccccc2NC1=O` (stereo not drawn), the TGI in the test with XF 498 CNS, with HOP-18 NSCLC, with M19-MEL melanoma and in the test on LXFL 529 NSCLC was over 100 µM each time.
In the case of `c1cc2c(cnc3cscc32)s1`, the TGI in the test on XF 498 CNS and in the test with M19-MEL melanoma was over 100 µM in each case.
In the case of `Cc1ccc(C)c(NC(=O)/C(=N\NC(N)=S)C(C#N)c2ccccc2)c1` (stereo not drawn), the TGI in the test on XF 498 CNS, in the test on HOP-18 NSCLC, in the test on M19-MEL melanoma and in the test with LXFL 529 NSCLC was over 100 µM throughout.
On to `COc1cc2ccc3c4cc(OC)c(OCc5ccccc5)cc4cnc3c2cc1OC`, for which the TGI in the test with XF 498 CNS, in the test on M19-MEL melanoma and in the test on LXFL 529 NSCLC was over 100 µM in each case.
In the case of `Cc1c(C(=O)CC(=O)C(=O)NC2C3CC4CC(C3)CC2C4)[n+](=O)c2ccccc2n1[O-]` (stereo not drawn), the TGI in the test with XF 498 CNS, in the test with HOP-18 NSCLC, with M19-MEL melanoma and with LXFL 529 NSCLC was over 100 µM in each case.
Consider `[Cl][Sn]([c]1ccccc1)[c]1ccccc1`, for which the GI50 was 2.68 µM in the test on XF 498 CNS, 3.27 µM with HOP-18 NSCLC and 1.4 µM in the test with LXFL 529 NSCLC. In addition, the TGI in the test on XF 498 CNS was determined as 5.22 µM; with HOP-18 NSCLC it was 9.24 µM; with LXFL 529 NSCLC, 3.13 µM.
Regarding `O=c1oc2c3ccc4ccccc4c3n(Cc3nc4ccccc4[nH]3)c2c2ccccc12`, the TGI in the test on HOP-18 NSCLC, with M19-MEL melanoma and in the test on LXFL 529 NSCLC was over 100 µM throughout.
In the case of `CC1(C)OC2C(=O)OC(COCc3ccccc3)C2O1` (stereo not drawn), the TGI in the test on HOP-18 NSCLC, with M19-MEL melanoma and in the test with LXFL 529 NSCLC was over 100 µM each time.
Take `CCCCS(=N)(=O)CC[C@H](N)C(=O)O` (stereo partly drawn): the TGI in the test with XF 498 CNS was 604 µM; in the test with HOP-18 NSCLC it was over 5000 µM; with M19-MEL melanoma, over 5000 µM; with HS 578T breast it was over 10000 µM; in the test on MDA-MB-231 breast it was over 10000 µM; in the test on DU-145 prostate, over 10000 µM. Further, the TGI was over 10000 µM in the test on BT-549 breast; over 10000 µM with T-47D breast; 5000 µM and > 6020 µM in the test on NCI/ADR-RES ovarian. Also, the GI50 in the test with HS 578T breast is over 8500 µM; in the test with MDA-MB-231 breast it was over 10000 µM; with DU-145 prostate, over 10000 µM; in the test with BT-549 breast, over 10000 µM; in the test on T-47D breast, over 10000 µM; with NCI/ADR-RES ovarian it was 1770 µM.
`CCCCCCCCCCCCC(SCCNC(=O)CCNC(=O)C(O)C(C)(C)COP(=O)(O)OP(=O)(O)OCC1OC(n2cnc3c(N)ncnc32)C(O)C1OP(=O)(O)O)C(=O)NCC(N)=O` (stereo not drawn): the TGI in the test with HOP-18 NSCLC, in the test with M19-MEL melanoma and with LXFL 529 NSCLC was over 100 µM in each case.
On to `c1cncc(C2c3[nH]c4ccccc4c3CCN2CCN2CCCCC2)c1` (stereo not drawn), for which the TGI in the test with XF 498 CNS, with HOP-18 NSCLC, in the test on M19-MEL melanoma and in the test with LXFL 529 NSCLC was over 100 µM each time.
